Measured values from PubChem BioAssay (NCI).
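Values below derive from 48-hour exposures of cells grown in 96-well plates, with endpoints linearly interpolated between the two concentrations bracketing the appropriate inhibition level. TGI is the concentration that stops growth completely.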

Key:
Experiment in all cases: inhibition of tumour cell growth, NCI panel, 48 h
SNB-78 CNS = tested on: SNB-78 CNS
HL-60(TB) leukemia = tested on: HL-60(TB) leukemia
A498 renal = tested on: A498 renal
RXF-631 renal = tested on: RXF-631 renal
IGROV1 ovarian = tested on: IGROV1 ovarian
RXF 393 renal = tested on: RXF 393 renal
LOX IMVI melanoma = tested on: LOX IMVI melanoma
HCT-116 colon = tested on: HCT-116 colon
OVCAR-4 ovarian = tested on: OVCAR-4 ovarian
CAKI-1 renal = tested on: CAKI-1 renal
COLO 205 colon = tested on: COLO 205 colon
KM20L2 colon = tested on: KM20L2 colon
M14 melanoma = tested on: M14 melanoma
DLD-1 colon = tested on: DLD-1 colon
NCI-H460 lung = tested on: NCI-H460 lung
UACC-257 melanoma = tested on: UACC-257 melanoma
NCI-H522 lung = tested on: NCI-H522 lung
NCI-H226 lung = tested on: NCI-H226 lung
SNB-19 CNS = tested on: SNB-19 CNS
TK-10 renal = tested on: TK-10 renal
786-0 renal = tested on: 786-0 renal
HCT-15 colon = tested on: HCT-15 colon
OVCAR-8 ovarian = tested on: OVCAR-8 ovarian
SF-539 CNS = tested on: SF-539 CNS
U251 CNS = tested on: U251 CNS
OVCAR-3 ovarian = tested on: OVCAR-3 ovarian
A549 NSCLC = tested on: A549 NSCLC
SN12C renal = tested on: SN12C renal
HOP-92 NSCLC = tested on: HOP-92 NSCLC
SR leukemia = tested on: SR leukemia
HOP-62 NSCLC = tested on: HOP-62 NSCLC
CCRF-CEM leukemia = tested on: CCRF-CEM leukemia
KM12 colon = tested on: KM12 colon
SW-620 colon = tested on: SW-620 colon
SK-OV-3 ovarian = tested on: SK-OV-3 ovarian
K-562 leukemia = tested on: K-562 leukemia
MALME-3M melanoma = tested on: MALME-3M melanoma
RPMI-8226 leukemia = tested on: RPMI-8226 leukemia
OVCAR-5 ovarian = tested on: OVCAR-5 ovarian
SF-268 CNS = tested on: SF-268 CNS
MOLT-4 leukemia = tested on: MOLT-4 leukemia
HT29 colon = tested on: HT29 colon
DMS 114 small cell lung = tested on: DMS 114 small cell lung
SK-MEL-5 melanoma = tested on: SK-MEL-5 melanoma
M19-MEL melanoma = tested on: M19-MEL melanoma
SF-295 CNS = tested on: SF-295 CNS
SNB-75 CNS = tested on: SNB-75 CNS
DMS 273 small cell lung = tested on: DMS 273 small cell lung
NCI-H23 lung = tested on: NCI-H23 lung
UACC-62 melanoma = tested on: UACC-62 melanoma
EKVX NSCLC = tested on: EKVX NSCLC
LXFL 529 NSCLC = tested on: LXFL 529 NSCLC
XF 498 CNS = tested on: XF 498 CNS
ACHN renal = tested on: ACHN renal
HCC-2998 colon = tested on: HCC-2998 colon
SK-MEL-2 melanoma = tested on: SK-MEL-2 melanoma
UO-31 renal = tested on: UO-31 renal

## COc1cc2c(cc1OC)C1C=NC(C(=O)O)(C2)c2ccccc21 (stereo not drawn)
SNB-78 CNS
  TGI: > 100 µM
HL-60(TB) leukemia
  TGI: > 100 µM
A498 renal
  TGI: > 100 µM
RXF-631 renal
  TGI: > 100 µM
IGROV1 ovarian
  TGI: > 100 µM
RXF 393 renal
  TGI: > 100 µM
LOX IMVI melanoma
  TGI: > 100 µM
HCT-116 colon
  TGI: > 100 µM
OVCAR-4 ovarian
  TGI: > 100 µM
CAKI-1 renal
  TGI: > 100 µM
COLO 205 colon
  TGI: > 100 µM
KM20L2 colon
  TGI: > 100 µM
M14 melanoma
  TGI: > 100 µM
DLD-1 colon
  TGI: > 100 µM
NCI-H460 lung
  TGI: > 100 µM
UACC-257 melanoma
  TGI: > 100 µM
NCI-H522 lung
  TGI: > 100 µM
NCI-H226 lung
  TGI: > 100 µM
SNB-19 CNS
  TGI: > 100 µM
TK-10 renal
  TGI: > 100 µM
786-0 renal
  TGI: > 100 µM
HCT-15 colon
  TGI: > 100 µM
OVCAR-8 ovarian
  TGI: > 100 µM
SF-539 CNS
  TGI: > 100 µM
U251 CNS
  TGI: > 100 µM
OVCAR-3 ovarian
  TGI: > 100 µM
A549 NSCLC
  TGI: > 100 µM
SN12C renal
  TGI: > 100 µM
HOP-92 NSCLC
  TGI: > 100 µM
SR leukemia
  TGI: > 100 µM
HOP-62 NSCLC
  TGI: > 100 µM
CCRF-CEM leukemia
  TGI: > 100 µM
KM12 colon
  TGI: > 100 µM
SW-620 colon
  TGI: > 100 µM
SK-OV-3 ovarian
  TGI: > 100 µM
K-562 leukemia
  TGI: > 100 µM
MALME-3M melanoma
  TGI: > 100 µM
RPMI-8226 leukemia
  TGI: > 100 µM
OVCAR-5 ovarian
  TGI: > 100 µM
SF-268 CNS
  TGI: > 100 µM
MOLT-4 leukemia
  TGI: > 100 µM
HT29 colon
  TGI: > 100 µM
DMS 114 small cell lung
  TGI: > 100 µM
SK-MEL-5 melanoma
  TGI: > 100 µM
M19-MEL melanoma
  TGI: > 100 µM
SF-295 CNS
  TGI: > 100 µM
SNB-75 CNS
  TGI: > 100 µM
DMS 273 small cell lung
  TGI: > 100 µM
NCI-H23 lung
  TGI: > 100 µM
UACC-62 melanoma
  TGI: > 100 µM
EKVX NSCLC
  TGI: > 100 µM
LXFL 529 NSCLC
  TGI: > 100 µM

## C=CCCCC12CCCc3cccc(c31)NC2=O (stereo not drawn)
HL-60(TB) leukemia
  TGI: 48.7 µM
XF 498 CNS
  TGI: 41.7 µM
A498 renal
  TGI: 45.6 µM
RXF-631 renal
  TGI: 55.6 µM
IGROV1 ovarian
  TGI: 33.8 µM
RXF 393 renal
  TGI: 42.8 µM
LOX IMVI melanoma
  TGI: 62.3 µM
HCT-116 colon
  TGI: 26.4 µM
OVCAR-4 ovarian
  TGI: 39.8 µM
COLO 205 colon
  TGI: 40.4 µM
KM20L2 colon
  TGI: 47 µM
M14 melanoma
  TGI: 31.1 µM
DLD-1 colon
  TGI: 42.4 µM
NCI-H460 lung
  TGI: 33.8 µM
UACC-257 melanoma
  TGI: 50.4 µM
NCI-H522 lung
  TGI: 31.3 µM
NCI-H226 lung
  TGI: 40.3 µM
ACHN renal
  TGI: 86.4 µM
SNB-19 CNS
  TGI: 61.9 µM
TK-10 renal
  TGI: 42.4 µM
SF-539 CNS
  TGI: 47.4 µM
U251 CNS
  TGI: 50.3 µM
OVCAR-3 ovarian
  TGI: 39.1 µM
A549 NSCLC
  TGI: 51.2 µM
HCC-2998 colon
  TGI: 30.8 µM
SN12C renal
  TGI: > 100 µM
HOP-92 NSCLC
  TGI: 31.8 µM
SR leukemia
  TGI: > 100 µM
HOP-62 NSCLC
  TGI: > 100 µM
CCRF-CEM leukemia
  TGI: > 100 µM
KM12 colon
  TGI: 35.6 µM
SW-620 colon
  TGI: 41.8 µM
SK-OV-3 ovarian
  TGI: 45.3 µM
K-562 leukemia
  TGI: 78.3 µM
MALME-3M melanoma
  TGI: 30.2 µM
SK-MEL-2 melanoma
  TGI: 55.5 µM
RPMI-8226 leukemia
  TGI: 47.3 µM
OVCAR-5 ovarian
  TGI: 43.5 µM
MOLT-4 leukemia
  TGI: 55.1 µM
DMS 114 small cell lung
  TGI: 33 µM
SK-MEL-5 melanoma
  TGI: 34.2 µM
UO-31 renal
  TGI: 87.6 µM
SF-295 CNS
  TGI: > 100 µM
NCI-H23 lung
  TGI: 36.8 µM
UACC-62 melanoma
  TGI: 31.3 µM
EKVX NSCLC
  TGI: 37.3 µM
